Patent US20080261994A1, “CYCLOPROPANE COMPOUNDS AND PHARMACEUTICAL USE THEREOF” (Japan Tobacco Inc., priority 2003, published 2008)
pIC50: −log10 of the molar value. Read-outs that look alike come from different tables or passages of the source.

What was measured:
Type in all cases: biochemical
aggrecanase-1 = target: T1, aggrecanase-1 (Homo sapiens, UniProt O75173); test: Aggrecanase-1 inhibitory action (Particle Assay, GAG release from aggrecan-containing polyacrylamide particles)
T1 sequence (O75173 213-837): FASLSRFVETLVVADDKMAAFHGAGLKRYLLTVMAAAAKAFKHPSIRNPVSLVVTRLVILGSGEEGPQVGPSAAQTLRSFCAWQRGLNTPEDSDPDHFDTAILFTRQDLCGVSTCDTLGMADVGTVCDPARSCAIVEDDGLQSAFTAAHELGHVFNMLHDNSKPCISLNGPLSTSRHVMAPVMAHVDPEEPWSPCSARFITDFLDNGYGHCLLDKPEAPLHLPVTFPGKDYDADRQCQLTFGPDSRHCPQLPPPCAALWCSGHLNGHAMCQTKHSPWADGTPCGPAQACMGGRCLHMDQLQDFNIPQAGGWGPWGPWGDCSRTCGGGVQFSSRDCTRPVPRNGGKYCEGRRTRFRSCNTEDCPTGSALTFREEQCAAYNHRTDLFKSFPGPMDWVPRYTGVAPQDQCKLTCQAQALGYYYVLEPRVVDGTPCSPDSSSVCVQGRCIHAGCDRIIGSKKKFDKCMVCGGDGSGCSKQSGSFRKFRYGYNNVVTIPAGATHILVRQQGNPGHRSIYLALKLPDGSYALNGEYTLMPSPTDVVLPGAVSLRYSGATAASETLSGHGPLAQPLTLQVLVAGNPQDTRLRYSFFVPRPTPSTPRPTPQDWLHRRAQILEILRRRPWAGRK
Procedure: Particle Assay was used for determination of aggrecanase activity.
(§1) The enzyme and substrate were diluted with Tris-HCl buffer, and test compounds were diluted with dimethyl sulfoxide (DMSO).
Test compounds and the enzyme were added into 96-well plate, and polyacrylamide particles containing aggrecan were added as a substrate and the mixture was incubated at 37° C. for 15 hr.
After incubation, the supernatant was transferred to another plate, and mixed with 1,9-dimethylmethylene blue. The absorbence at 595 nm was measured to quantify the amount of glycosaminoglycan (GAG) released in the reaction supernatant. Whale chondroitin sulfate was used as the standard of GAG. The inhibitory activity of the compound in each well (%) was calculated based on the values of enzyme-free well and inhibitor-free well. The inhibitory activity of the compound was represented as […] (μM).

MMP-1 = target: T2, MMP-1 (Homo sapiens, UniProt P03956); test: MMP-1 inhibitory action (Type I collagen Activity Measurement kit, FITC-labeled collagen type I)
T2 sequence (P03956 100-469): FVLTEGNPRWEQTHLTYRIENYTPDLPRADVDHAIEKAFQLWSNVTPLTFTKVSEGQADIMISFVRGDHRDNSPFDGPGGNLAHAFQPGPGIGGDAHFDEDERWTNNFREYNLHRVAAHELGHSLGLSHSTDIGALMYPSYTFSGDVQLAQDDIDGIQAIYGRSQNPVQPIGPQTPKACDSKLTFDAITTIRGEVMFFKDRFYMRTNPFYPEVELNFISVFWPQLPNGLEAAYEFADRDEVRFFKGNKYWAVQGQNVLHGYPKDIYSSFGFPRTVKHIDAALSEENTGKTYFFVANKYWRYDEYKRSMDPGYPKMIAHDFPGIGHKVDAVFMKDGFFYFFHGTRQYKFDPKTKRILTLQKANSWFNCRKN
Procedure: For MMP-1 Assay, Type I collagen Activity Measurement kit (YAGAI YU-72013) modified to a 96-well plate format was used.
The principle of the kit is based on the property of collagen that becomes soluble in ethanol after being cleaved by MMP-1.
as §1
The enzyme and test compounds were added into 96-well plate, and fluorescein isothiocianate (FITC)-labeled collagen type I was added as a substrate and the mixture was incubated at 37° C. for 3 hr.
The reaction was terminated by addition of Tris-HCl buffer containing ethanol. After centrifugation, the supernatant containing denatured substrate was transferred to another 96-well plate. The collagenase activity of MMP-1 was determined by measuring FITC fluorescence intensity (excitation wavelength 485 nm, emission wavelength 530 nm) of each well. The inhibitory activity of the compound in each well (%) was calculated based on the values of enzyme-free well and inhibitor-free well. The inhibitory activity of the compound was represented as IC50 (μM).

Recombinant Human MMP-13 = target: T3, Recombinant Human MMP-13 (Homo sapiens, UniProt P45452); test: MMP-13 inhibitory activity (MMP-13 specific fluorescent substrate with quencher)
T3 construct: purchased R&D systems 511-MM
Procedure: Inhibitory activity of tested compounds on MMP-13 was measured using MMP-13 specific fluorescent substrate with quencher.
as §1
Test compounds and the enzyme (Recombinant Human MMP-13: R&D systems, 511-MM) were added into 96-well plate. The reaction was initiated by adding synthetic substrate (7-MCA-Pro-CHA-Gly-NVal-His-Ala-DPA: enzyme systems products, Met-06) into the plate. After incubation at 25° C. for 1 h, the reaction was terminated by addition of reaction terminating solution containing acetic acid. Fluorescence intensity of each well was measured (Ex: 325 nm, […] 405 nm) and the MMP-13 inhibitory activity of the compound in each well (%) was calculated based on the values of enzyme-free well and inhibitor-free well. The inhibitory activity of the compound was represented as IC50 (μM).

[1] = aggrecanase-1 inhibitory action, read-out: IC50 AG1 (Experimental Example 1)
[2] = MMP-1 inhibitory action, FITC-labeled collagen type I, 37° C. for 3 hr, read-out: IC50 MMP1 (Experimental Example 2)
[3] = Recombinant Human MMP-13, fluorescent substrate, 25° C. for 1 h, read-out: IC50 MMP13 (Experimental Example 3)
[4] = Experimental Example 1, read-out: IC50 AG1
[5] = Experimental Example 2, read-out: IC50 MMP1
[6] = Experimental Example 3, read-out: IC50 MMP13

Structure (SMILES) | pIC50 (aggrecanase-1; [1]) | pIC50 (MMP-1; [2]) | pIC50 (Recombinant Human MMP-13; [3]) | pIC50 (aggrecanase-1; [4]) | pIC50 (MMP-1; [5]) | pIC50 (Recombinant Human MMP-13; [6])
CCc1cc(-c2ccc(S(=O)(=O)N[C@@]3(C(=O)O)C[C@@H]3c3ccccc3)s2)no1 [Example 2-92] | > 7.00 | > 6.00 | > 7.00 |  |  | 
NC(=O)OCCc1cccc(C2CC2(NS(=O)(=O)c2ccc(-c3cc(C(F)(F)F)on3)s2)C(=O)O)c1 (centres unmarked) [Example 2-270] |  |  |  | > 7.00 | ≤ 6.00 | > 7.00
O=C(NO)C1(NS(=O)(=O)c2ccc(-c3cc(C(F)(F)F)on3)s2)C2CCc3ccccc3C21 (centres unmarked) [Example 2-486] |  |  |  | > 6.00 | > 6.00 | > 7.00
CN(C)C(=O)c1ccccc1C1CC1(NS(=O)(=O)c1ccc(-c2ccc(Cl)cc2)s1)C(=O)O (centres unmarked) [Example 2-215] | > 7.00 | ≤ 5.00 | > 6.00 |  |  | 
O=C(O)CSCC1(c2ccccc2)CC1(NS(=O)(=O)c1ccc(-c2cc(C(F)(F)F)on2)s1)C(=O)O (centres unmarked) [Example 2-410] |  |  |  | > 7.00 | ≤ 6.00 | ≤ 6.00
O=C(O)C1(NS(=O)(=O)N2CCc3c([nH]c4ccccc34)C2)CC1c1ccccc1 (centres unmarked) [Example 2-125] | ≤ 5.00 | ≤ 5.00 | ≤ 5.00 |  |  | 
COC(=O)Cc1cccc(C2CC2(NS(=O)(=O)c2ccc(-c3ccc(Cl)cc3)s2)C(=O)O)c1 (centres unmarked) [Example 2-188] | > 7.00 | ≤ 6.00 | > 7.00 |  |  | 
Cc1cc(-c2ccc(S(=O)(=O)N[C@@]3(C(=O)O)C[C@@H]3c3ccccc3)s2)no1 [Example 2-85] | > 6.00 | ≤ 6.00 | > 7.00 |  |  | 
CC1[C@H](c2ccccc2)[C@]1(NS(=O)(=O)N1CC=C(c2ccc(Cl)cc2)CC1)C(=O)O (some centres unmarked) [Example 2-441] |  |  |  | > 7.00 | ≤ 6.00 | > 7.00
CC1(c2cccc(F)c2)CC1(NS(=O)(=O)c1ccc(-c2cc(C(F)(F)F)on2)s1)C(=O)O (centres unmarked) [Example 2-611] |  |  |  | > 7.00 | > 6.00 | ≤ 6.00
O=C(O)C1(NS(=O)(=O)c2ccc(-c3cc(C(F)(F)F)on3)s2)C2Cc3ccccc3C21 (centres unmarked) [Example 2-277] |  |  |  | > 6.00 | ≤ 6.00 | > 6.00
C[C@]1(c2cccc(Cl)c2)C[C@@]1(NS(=O)(=O)c1ccc(-c2cc(C(F)(F)F)on2)s1)C(=O)O [Example 2-619] |  |  |  | > 7.00 | > 6.00 | > 6.00
O=C(O)C1(NS(=O)(=O)c2ccc(-c3ccc(Cl)cc3)s2)C2CCNc3ccccc3C21 (centres unmarked) [Example 2-389] |  |  |  | > 7.00 | ≤ 6.00 | > 7.00
O=C(CCc1cccc(C2CC2(NS(=O)(=O)c2ccc(-c3ccc(Cl)cc3)s2)C(=O)O)c1)N1CCC(O)CC1 (centres unmarked) [Example 2-224] | > 7.00 | ≤ 6.00 | > 7.00 |  |  | 
C[C@]1(c2ccccc2)C[C@@]1(NS(=O)(=O)c1ccc(-c2ccc(C#N)cc2)s1)C(=O)O [Example 2-567] |  |  |  | > 7.00 | ≤ 6.00 | > 6.00
CC1[C@H](c2ccccc2)[C@]1(NS(=O)(=O)c1ccc(-c2ccc(Cl)cn2)s1)C(=O)O (some centres unmarked) [Example 2-366] |  |  |  | > 7.00 | > 6.00 | > 7.00
Cn1cc(-c2ccc(S(=O)(=O)N[C@@]3(C(=O)O)C[C@]3(C)c3ccccc3)s2)nn1 [Example 2-587] |  |  |  | ≤ 6.00 | ≤ 6.00 | > 6.00

Structure (SMILES) | pIC50 (aggrecanase-1; [1]) | pIC50 (MMP-1; [2]) | pIC50 (Recombinant Human MMP-13; [3]) | pIC50 (aggrecanase-1; [4]) | pIC50 (MMP-1; [5]) | pIC50 (Recombinant Human MMP-13; [6])
O=C(O)C1(NS(=O)(=O)c2ccc(-c3ccc(Cl)cc3)s2)CC1C1CCC1 (centres unmarked) [Example 2-58] | > 6.00 | ≤ 5.00 | > 6.00 |  |  | 
COCc1cn2cc(S(=O)(=O)N[C@@]3(C(=O)O)C[C@]3(C)c3ccccc3)sc2n1 [Example 2-519] |  |  |  | ≤ 6.00 | ≤ 6.00 | ≤ 6.00
CC(=O)N1CC=C(c2ccc(S(=O)(=O)N[C@@]3(C(=O)O)C[C@@H]3c3ccccc3)s2)CC1 [Example 2-177] | ≤ 6.00 | ≤ 5.00 | ≤ 6.00 |  |  | 
O=C(O)[C@]1(NS(=O)(=O)c2ccc(-c3cc(C(F)F)sn3)s2)C[C@@H]1c1ccccc1 [Example 2-119] | > 7.00 | > 6.00 | > 7.00 |  |  | 
Cc1cnn(-c2ccc(S(=O)(=O)N[C@@]3(C(=O)O)C[C@@H]3c3ccccc3)s2)c1 [Example 2-241] | > 6.00 | ≤ 6.00 | > 7.00 |  |  | 
Cc1ccc(-c2ccc(S(=O)(=O)N[C@@]3(C(=O)O)C[C@@H]3c3ccccc3)s2)s1 [Example 2-39] | > 6.00 | ≤ 6.00 | > 7.00 |  |  | 
CC1[C@H](c2ccccc2)[C@]1(NS(=O)(=O)N1CCCN(c2ccc(F)cc2)CC1)C(=O)O (some centres unmarked) [Example 2-472] |  |  |  | > 6.00 | ≤ 6.00 | ≤ 5.00
CC(C)Nc1ccc2c(c1)CN(S(=O)(=O)N[C@@]1(C(=O)O)C(C)[C@@H]1c1ccccc1)C2 (some centres unmarked) [Example 2-552] |  |  |  | ≤ 6.00 | ≤ 6.00 | > 6.00
O=C(O)C1(NS(=O)(=O)c2ccc(-c3cc(C(F)(F)F)on3)s2)CC1c1ccccc1CCCO (centres unmarked) [Example 2-252] | > 7.00 | ≤ 6.00 | > 6.00 |  |  | 
O=C(O)C1(NS(=O)(=O)c2ccc(-c3cc(C(F)(F)F)on3)s2)CC1c1cccc(N2CCOCC2)c1 (centres unmarked) [Example 2-257] | > 7.00 | ≤ 6.00 | > 6.00 |  |  | 
O=C(O)C1(NS(=O)(=O)c2ccc(-c3ccc(OC(F)(F)F)cc3)s2)CC1c1ccccc1 (centres unmarked) [Example 2-17] | ≤ 6.00 | ≤ 5.00 | > 7.00 |  |  | 
CC1[C@H](c2ccccc2)[C@]1(NS(=O)(=O)N1CCN(c2ccncc2)CC1)C(=O)O (some centres unmarked) [Example 2-533] |  |  |  | ≤ 6.00 | ≤ 6.00 | ≤ 6.00
O=C(O)[C@]1(NS(=O)(=O)c2ccc(-c3ccc(Cl)cc3)s2)C[C@@H]1c1cccc(Br)c1 [Example 2-136] | > 6.00 | ≤ 6.00 | > 7.00 |  |  | 
CC(F)(F)c1cc(-c2ccc(S(=O)(=O)N[C@@]3(C(=O)O)C[C@@H]3c3ccccc3)s2)ns1 [Example 2-124] | > 7.00 | ≤ 6.00 | > 7.00 |  |  | 
CC1[C@H](c2ccccc2)[C@]1(NS(=O)(=O)c1ccc(-c2cc(C(C)(F)F)on2)s1)C(=O)O (some centres unmarked) [Example 2-609] |  |  |  | > 7.00 | > 7.00 | > 7.00
COC(=O)c1ccccc1C1CC1(NS(=O)(=O)c1ccc(-c2ccc(Cl)cc2)s1)C(=O)O (centres unmarked) [Example 2-205] | > 7.00 | ≤ 5.00 | > 6.00 |  |  | 
O=C(O)[C@]1(NS(=O)(=O)c2ccc(-c3cc4ccccn4c3)s2)C[C@@H]1c1ccccc1 [Example 2-135] | ≤ 6.00 |  | > 7.00 |  |  | 
